# Assay results taken from publication PMC12811996, “Exploration and Characterization of the Antimalarial Activity of Pyrimidine‐2,4‐Diamines for which Resistance is Mediated by the ABCI3 Transporter” (Chemmedchem, 2025).
# Like-named read-outs stand apart in the source and are kept apart here.
# How the values were obtained:
# [1] = system: P. falciparum 3D7 parasites; test: P. falciparum 3D7 asexual stage parasite LDH assay, 72 h; type: cell-based, Plasmodium falciparum; settings: for EC50: Plasmodium falciparum, 3D7, 72 h, P. falciparum 3D7, LDH activity, 72 h exposure, means and SDs, 3 or more experiments, read-out: Pf parasite EC50 (SD); for fold reduction in antiplasmodial activity compared to W482 (1): ratio of 3D7 EC50 values
# Method: To establish the SAR, the antiparasitic activity of the analogs was determined using an assay that measures the lactate dehydrogenase (LDH) activity of asexual P. falciparum 3D7 parasites after 72 h of compound treatment. Mammalian cytotoxicity was monitored using an assay that measures the growth of HepG2 cells using Cell Titer‐Glo after 48 h of compound treatment.
# This was performed as previously described, whereby lactate dehydrogenase (LDH) was used as a metabolic marker for parasite growth after a 72‐h incubation period.^[ [14] ^, [30] ^]
# [2] = system: Plasmodium falciparum strain 3D7A; test: Parasite reduction ratio assay; type: cell-based; settings: 10 × EC50, 24 and 48 h treatment, P. falciparum 3D7
# Text: Figure 5 a) Stage of arrest assay showing that W482 (1) blocks ring‐trophozoite transition in the asexual stage of P. falciparum. […] Replicates of Giemsa‐stained blood smears can be found in Figure S4 (Supporting Information). c) Parasite reduction ratio assay conducted at 10 × EC50 of W482 (1). Data represent means and SD of P. falciparum 3D7 parasite survival measuring 3 independent replicates by two‐color flow cytometry using CFDA‐SE and Hoescht 33,342 staining.
# Samples of parasites were collected at 24‐ and 48‐hour timepoints, whereby the compound was washed out and fresh erythrocytes pre‐labeled with intracellular dye were added. Samples were then incubated for 18 days, and then the number of viable parasites was quantified by flow cytometry (Figure 5c).
# This assay was conducted following a previously described protocol using the Plasmodium falciparum strain 3D7A, MRA‐151.^[ [19] ^, [28] ^] The human biological samples used in the study were sourced ethically, and their research use was conducted in accordance with the terms of informed consent under an IRB/EC‐approved protocol.
# in vitro = in vitro ADME; settings: for microsomal CLint: human, microsomes, human liver microsomes; for hepatocyte CLint: rat hepatocytes
# Method: (§1) The aqueous solubility and in vitro metabolic stability of selected analogs were assessed to determine if they had favorable parameters (Table 9 ).These analogs were selected based on their potency and the modifications that were incorporated, which led to compounds 55 and 56. […] The high lipophilicity of analogs 1, 11, and 16 was not favorable for metabolic stability.
# (§2) This was performed as previously described.^[ [14] ^, [16] ^]
# Albumax = Albumax (Bos taurus, UniProt P02769); test: in vitro; type: in vitro ADME; settings: for fraction unbound: bovine, isolated protein, read-out: Albumax binding % bound (converted)
# physchem [3] = type: physicochemical; settings: kinetic in PBS, pH 7.4
# Method: as §1, §2
# physchem [4] = type: physicochemical; settings: shake-flask method; for logD: read-out: eLogD
# Method: as §2
# PfABCI3-HAreg parasites = test: Parasite proliferation assay with PfABCI3-HAreg parasites (SYBR Safe, 72 h); type: cell-based, Plasmodium falciparum; settings: mean ± SEM, n = 4; for IC50: Plasmodium falciparum, 72 h
# Method: Glucosamine (GlcN) (5 mM) was used to reduce the level of pfabci3‐ha. Chloroquine and MMV020746 were used as negative and positive controls, respectively.
# Figure 4 Sensitivity of PfABCI3‐HAreg parasites to growth inhibition by chloroquine (a), MMV020746 (b), and W482 (1) (c). Data for parasites in which pfabci3‐ha mRNA was reduced (+ GlcN) are shown in red. GlcN (5 mM) was added to the parasites 48 h prior to the assay and maintained throughout the 72 h assay. The data for parasites expressing a normal level of PfABCI3‐HA (‐GlcN) are shown in black. The data in all panels are from four independent experiments performed on different days. […] Parasites that were treated with or without GlcN (5 mM) were tested concurrently in each assay. TEXT PRINTED IN THE PICTURE: chloroquine: IC50 ± SEM (nM) - GlcN: 12.6 ± 1.1; IC50 ± SEM (nM) + GlcN: 11.9 ± 1.5 | MMV020746: IC50 ± SEM (nM) - GlcN: 104 ± 13; IC50 ± SEM (nM) + GlcN: 32.9 ± 3.9 | W482 (1): IC50 ± SEM (nM) - GlcN: 312 ± 28; IC50 ± SEM (nM) + GlcN: 153 ± 12
# Parasite proliferation assays were performed with PfABCI3‐HAreg parasites^[ [19] ^] according to a previously described method, with the fluorescent nucleic acid intercalating dye SYBR Safe used to measure parasite viability.^[ [32] ^, [33] ^] The assays were commenced with cultures consisting of predominantly ring‐stage parasites with a starting hematocrit of 1% and parasitemia of 1%. […] It was shown previously that there is a reduction in pfabci3‐ha mRNA in PfABCI3‐HAreg exposed to 5 mM GlcN and a decrease in parasite viability over time.^[ [19] ^] The level of knockdown of the protein is not known.
# [5] = aqueous buffer, kinetic from dmso stock
# [6] = read-out: Aqueous solubility pH 7.4
# Chain of Albumax (P02769 25-607): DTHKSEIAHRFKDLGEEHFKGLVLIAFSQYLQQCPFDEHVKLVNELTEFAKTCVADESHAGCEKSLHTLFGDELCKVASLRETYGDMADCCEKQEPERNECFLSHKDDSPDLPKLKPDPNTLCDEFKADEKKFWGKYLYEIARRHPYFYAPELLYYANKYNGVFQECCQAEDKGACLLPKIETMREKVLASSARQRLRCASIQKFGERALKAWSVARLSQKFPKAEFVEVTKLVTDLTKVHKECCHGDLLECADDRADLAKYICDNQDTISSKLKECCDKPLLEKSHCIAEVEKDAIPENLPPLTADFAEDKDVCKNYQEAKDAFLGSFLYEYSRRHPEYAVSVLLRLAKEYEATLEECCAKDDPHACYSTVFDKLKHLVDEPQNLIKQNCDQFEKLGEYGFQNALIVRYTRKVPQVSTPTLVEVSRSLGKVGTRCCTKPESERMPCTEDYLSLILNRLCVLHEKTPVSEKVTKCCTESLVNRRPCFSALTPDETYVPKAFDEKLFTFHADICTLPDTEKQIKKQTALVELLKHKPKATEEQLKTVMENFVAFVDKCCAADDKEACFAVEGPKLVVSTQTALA
Compound,EC50 [1] [nM],further results
Cc1cc(N(C)C)nc(Nc2ccc(NC(=O)c3ccco3)cc2)n1 [Compound 28],3900,
"CCc1nc(N)nc(N)c1-c1ccc(Cl)cc1 [Pyrimethamine, reference compound]",,asexual speed-of-kill profile [2]: moderate killing rate
Cc1ccc(NC(=O)Nc2ccc(Nc3nc(C)cc(N(C)C)n3)cc2)cc1 [Compound 53],440,
"Cc1cc(N(C)C)cc(Nc2ccc(NC(=O)CCC3CCCCC3)cc2)n1 [Compound 20, 3‐Cyclohexyl‐N‐(4‐((4‐(dimethylamino)‐6‐methylpyridin‐2‐yl)amino)phenyl)propanamide]",880,
"Cc1cc(N(C)Cc2ccccc2)nc(Nc2ccc(NC(=O)CCC3CCCCC3)cc2)n1 [Compound 6, N‐(4‐((4‐(Benzyl(methyl)amino)‐6‐methylpyrimidin‐2‐yl)amino)phenyl)‐3‐cyclohexylpropanamide]",600,
Cc1cc(N(C)C)nc(Nc2ccc(NC(=O)Nc3ccccc3F)cc2)n1 [Compound 45],3420,
Cc1cc(N(C)C)nc(Nc2ccc(NC(=O)c3ccc(C)c(C)c3)cc2)n1 [Compound 42],660,
Cc1cc(N(C)C)nc(Nc2ccc(NC(=O)CC(C)C)cc2)n1 [Compound 32],1630,
Cc1cc(N(C)C)nc(Nc2ccc(NC(=O)c3ccccc3Br)cc2)n1 [Compound 36],1850,
Cc1cc(N(C)C)nc(Nc2ccc(NC(=O)Nc3ccc(F)cc3)cc2)n1 [Compound 51],300,microsomal CLint (in vitro): 26 µL/min/mg; hepatocyte CLint (in vitro): 32 µL/min/1e6 cells; fraction unbound (Albumax): 0.016; solubility (physchem [3]; [5]): 3.7 µM; logD (physchem [4]): 3
Cc1cc(N(C)C)nc(Nc2ccc(NC(=O)c3cccc(Br)c3)cc2)n1 [Compound 39],450,
Cc1cc(N(C)C)nc(Nc2ccc(NC(=O)C(C)C)cc2)n1 [Compound 30],3760,
Cc1cc(N(C)C)nc(Nc2ccc(NC(=O)Nc3ccccc3C)cc2)n1 [Compound 47],410,
Cc1cc(C)cc(C(=O)Nc2ccc(Nc3nc(C)cc(N(C)C)n3)cc2)c1 [Compound 41],590,
Cc1cc(N(C)C)nc(Nc2ccc(NC(=O)CCC3CCCC3)cc2)n1 [Compound 34],1000,fold reduction in antiplasmodial activity compared to W482 (1) [1]: 2 fold
COc1ccc(Cl)cc1C(=O)Nc1ccc(Nc2nc(C)cc(N(C)C)n2)cc1 [Compound 44],490,
3‐Cyclohexyl‐N‐(4‐((4‐methyl‐6‐morpholinopyrimidin‐2‐yl)amino)phenyl)propenamide [Compound 9],,fold reduction in antiplasmodial activity compared to W482 (1) [1]: 4 fold
Cc1cc(N(C)C)nc(Nc2ccc(NC(=O)c3ccc4ccccc4c3)cc2)n1 [Compound 29],360,
Cc1cc(N(C)C)nc(Nc2ccc(NC(=O)Nc3cccc(Cl)c3)cc2)n1 [Compound 49],240,
"O=C(Nc1ccc(F)cc1)Nc1ccc(Nc2nc(N3CCNCC3)c3ccccc3n2)cc1 [Compound 56, 1‐(4‐Fluorophenyl)‐3‐(4‐((4‐(piperazin‐1‐yl)quinazolin‐2‐yl)amino)phenyl)urea]",180,hepatocyte CLint (in vitro): 21 µL/min/1e6 cells; fraction unbound (Albumax): 0.001; solubility (physchem [3]; [5]): 9.6 µM; logD (physchem [4]): 2.2

Compound,EC50 [1] [nM],further results
Cc1cc(N(C)C)nc(Nc2ccc(NC(=O)c3cccc(F)c3)cc2)n1 [Compound 38],780,fold reduction in antiplasmodial activity compared to W482 (1) [1]: 2 fold
COc1ccccc1NC(=O)Nc1ccc(Nc2nc(C)cc(N(C)C)n2)cc1 [Compound 48],380,
"CCN(CC)CCCC(C)Nc1ccnc2cc(Cl)ccc12 (centres unmarked) [chloroquine, reference compound]",,IC50 (PfABCI3-HAreg parasites; PfABCI3-HAreg parasites expressing normal level of PfABCI3-HA (-GlcN)): 12.6 ± 1.1 nM; IC50 (PfABCI3-HAreg parasites; PfABCI3-HAreg parasites with reduced pfabci3-ha mRNA (+ 5 mM GlcN)): 11.9 ± 1.5 nM; fold lower IC50 for +GlcN parasites than -GlcN parasites (PfABCI3-HAreg parasites): equally potent
Cc1cc(N(C)C)nc(Nc2ccc(NC(=O)Nc3ccc(Cl)cc3)cc2)n1 [Compound 52],340,
3‐Cyclohexyl‐N‐(4‐((4‐(dimethylamino)quinazolin‐2‐yl)amino)phenyl)propenamide [Compound 16],,Human liver microsomes CLint (in vitro): 166 µL/min/mg; Rat hepatocytes CLint (in vitro): >92 µL/min/10^6 cells; Albumax binding % bound (Albumax): 96.6%; solubility (physchem [3]; [6]): 2.5 µM; eLogD (physchem [4]): 4.6–5.0
Cc1cc(N(C)C)nc(Nc2ccc(NC(=O)C(C)(C)C)cc2)n1 [Compound 31],3360,
"CN(C)c1nc(Nc2ccc(NC(=O)CCC3CCCCC3)cc2)cc2ccccc12 [Compound 21, 3‐Cyclohexyl‐N‐(4‐((1‐(dimethylamino)isoquinolin‐3‐yl)amino)phenyl)propanamide]",> 10000,
"O=C(CCC1CCCCC1)Nc1ccc(Nc2nc(N3CCNCC3)c3ccccc3n2)cc1 [Compound 55, 3‐Cyclohexyl‐N‐(4‐((4‐(piperazin‐1‐yl)quinazolin‐2‐yl)amino)phenyl)propanamide]",230,Human liver microsomes CLint (in vitro): 117 µL/min/mg; microsomal CLint (in vitro): > 117 µL/min/mg; hepatocyte CLint (in vitro): 27 µL/min/1e6 cells; fraction unbound (Albumax): 0.002; solubility (physchem [3]; [5]): 2.5 µM; logD (physchem [4]): 3.2
Cc1cccc(C(=O)Nc2ccc(Nc3nc(C)cc(N(C)C)n3)cc2)c1 [Compound 40],1080,fold reduction in antiplasmodial activity compared to W482 (1) [1]: 2 fold
3‐Cyclohexyl‐N‐(4‐((4‐methyl‐6‐(4‐methylpiperazin‐1‐yl)pyrimidin‐2‐yl)amino)phenyl)propenamide [Compound 11],,Rat hepatocytes CLint (in vitro): >92 µL/min/10^6 cells; Albumax binding % bound (Albumax): 99.9%; solubility (physchem [3]; [6]): 2.6 µM; eLogD (physchem [4]): 4.6–5.0
Cc1cc(N(C)C)nc(Nc2ccc(NC(=O)Nc3ccccc3Cl)cc2)n1 [Compound 46],> 10000,
3‐Cyclohexyl‐N‐(6‐((4‐(dimethylamino)‐6‐methylpyrimidin‐2‐yl)amino)pyridin‐3‐yl)propenamide [Compound 25],,fold reduction in antiplasmodial activity compared to W482 (1) [1]: 8 fold
Cc1cccc(NC(=O)Nc2ccc(Nc3nc(C)cc(N(C)C)n3)cc2)c1 [Compound 50],240,
COc1ccc(NC(=O)Nc2ccc(Nc3nc(C)cc(N(C)C)n3)cc2)cc1 [Compound 54],400,
"Cc1cc(Nc2ccc(NC(=O)CCC3CCCCC3)cc2)nc(N(C)C)c1 [Compound 19, 3‐Cyclohexyl‐N‐(4‐((6‐(dimethylamino)‐4‐methylpyridin‐2‐yl)amino)phenyl)propanamide]",610,
Cc1cc(N(C)C)nc(Nc2ccc(NC(=O)c3ccccc3Cl)cc2)n1 [Compound 35],2120,
Cc1cc(N(C)C)nc(Nc2ccc(NC(=O)c3ccccc3C(F)(F)F)cc2)n1 [Compound 37],850,fold reduction in antiplasmodial activity compared to W482 (1) [1]: 2 fold
Cc1cc(N(C)C)nc(Nc2ccc(NC(=O)c3cccs3)cc2)n1 [Compound 27],1440,
Cc1cc(N(C)C)nc(Nc2ccc(NC(=O)C3CCCCC3)cc2)n1 [Compound 33],930,
COc1cc(OC)cc(C(=O)Nc2ccc(Nc3nc(C)cc(N(C)C)n3)cc2)c1 [Compound 43],640,
